The values that follow come from patent US20250115620A1, “BRIDGED TRICYCLIC CARBAMOYLPYRIDONE COMPOUNDS AND USES THEREOF” (Gilead Sciences, Inc., priority 2022, published 2025).

Each structure is given as a SMILES string. Like-named read-outs stand apart in the source and are kept apart here.

The subject of one series is HIV-1 (IIIB). The series is described as follows: microbe, parasite or virus in culture. The class given is cell-based. As to conditions: Human immunodeficiency virus 1, IIIB, MT4, 120 h, HIV-1 (IIIB) in MT-4 cells, 5 days incubation, Cell Titer Glo; read-out: MT4 EC50. A general note: ATP-based viability assays read luminescence as a measure of living cells.
The nature of a further series: in vitro. As to conditions: human, uninfected MT-4 cells.
The next series relates to pLAI reporter virus. Kind of series: microbe, parasite or virus in culture. The class given is cell-based, HIV. As to conditions: Human immunodeficiency virus 1, MT4, 72 h.

With `C[C@H]1CC[C@]2(CC(N3CCCC3)=NO2)[C@H]2CN1C(=O)c1c(O)c(=O)c(C(=O)NCc3c(F)cc(F)cc3F)cn12` [Example 75, (3′S,5S,7′R)-12′-hydroxy-3′-methyl-1′,11′-dioxo-3-(pyrrolidin-1-yl)-N-(2,4,6-trifluorobenzyl)-1′,4′,5′,11′-tetrahydro-3′H,4H,7′H-spiro[isoxazole-5,6′-[2,7]methanopyrido[1,2-a][1,4]diazonine]-10′-carboxamide], the EC50 turned out to be 1.8 nM in the series with HIV-1 (IIIB), 1.8 nM in the series with pLAI reporter virus (read-out: RLUC 50% HS EC50) and 0.3 nM in the series on pLAI reporter virus (read-out: RLUC CCM EC50). In addition, in the series “in vitro”, it took 14100 nM to reach half-maximal cytotoxicity (CC50 at 5 days).
With `C[C@H]1CC[C@]2(CC(n3cnnc3)=NO2)[C@H]2CN1C(=O)c1c(O)c(=O)c(C(=O)NCc3c(F)cc(F)cc3F)cn12` [Example 76, (3′S,5S,7′R)-12′-hydroxy-3′-methyl-1′,11′-dioxo-3-(4H-1,2,4-triazol-4-yl)-N-(2,4,6-trifluorobenzyl)-1′,4′,5′,11′-tetrahydro-3′H,4H,7′H-spiro[isoxazole-5,6′-[2,7]methanopyrido[1,2-a][1,4]diazonine]-10′-carboxamide], the EC50 with HIV-1 (IIIB) was found to be 2.2 nM; in the series on pLAI reporter virus (read-out: RLUC 50% HS EC50), 3.3 nM; in the series on pLAI reporter virus (read-out: RLUC CCM EC50) it was 0.4 nM. In addition, it took 10100 nM to reach half-maximal cytotoxicity in the series “in vitro” (CC50 at 5 days).
The matching figures for `C[C@H]1CC[C@]2(CC(n3cccn3)=NO2)[C@H]2CN1C(=O)c1c(O)c(=O)c(C(=O)NCc3c(F)cc(F)cc3F)cn12` [Example 77, (3′S,5S,7′R)-12′-hydroxy-3′-methyl-1′,11′-dioxo-3-(1H-pyrazol-1-yl)-N-(2,4,6-trifluorobenzyl)-1′,4′,5′,11′-tetrahydro-3′H,4H,7′H-spiro[isoxazole-5,6′-[2,7]methanopyrido[1,2-a][1,4]diazonine]-10′-carboxamide]: 2.9 nM, 17.7 nM, 0.5 nM and 1480 nM.
In the case of `C[C@H]1CC[C@]2(CC(C#CC(C)(C)S(C)(=O)=O)=NO2)[C@H]2CN1C(=O)c1c(O)c(=O)c(C(=O)NCc3c(F)cc(F)cc3F)cn12` [Example 79, (3′S,5S,7′R)-12′-hydroxy-3′-methyl-3-(3-methyl-3-(methylsulfonyl)but-1-yn-1-yl)-1′,11′-dioxo-N-(2,4,6-trifluorobenzyl)-1′,4′,5′,11′-tetrahydro-3′H,4H,7′H-spiro[isoxazole-5,6′-[2,7]methanopyrido[1,2-a][1,4]diazonine]-10′-carboxamide], the results for the EC50 in the series with HIV-1 (IIIB), in the series with pLAI reporter virus (read-out: RLUC 50% HS EC50) and with pLAI reporter virus (read-out: RLUC CCM EC50) were 4.8 nM, 1.4 nM and 1 nM, respectively. The CC50 at 5 days in “in vitro” is ≥ 50000 nM.
The matching figures for `C[C@H]1CC[C@@]2(CC(C#CC(C)(C)S(C)(=O)=O)=NO2)[C@H]2CN1C(=O)c1c(O)c(=O)c(C(=O)NCc3c(F)cc(F)cc3F)cn12` [Example 80, (3′S,5R,7′R)-12′-hydroxy-3′-methyl-3-(3-methyl-3-(methylsulfonyl)but-1-yn-1-yl)-1′,11′-dioxo-N-(2,4,6-trifluorobenzyl)-1′,4′,5′,11′-tetrahydro-3′H,4H,7′H-spiro[isoxazole-5,6′-[2,7]methanopyrido[1,2-a][1,4]diazonine]-10′-carboxamide]: 81.5 nM, 30.1 nM, 15.7 nM and ≥ 50000 nM.
Take `C[C@H]1CC[C@]2(CC(C#CC(C)(C)O)=NO2)[C@H]2CN1C(=O)c1c(O)c(=O)c(C(=O)NCc3c(F)cc(F)cc3F)cn12` [Example 81, (3′S,5S,7′R)-12′-hydroxy-3-(3-hydroxy-3-methylbut-1-yn-1-yl)-3′-methyl-1′,11′-dioxo-N-(2,4,6-trifluorobenzyl)-1′,4′,5′,11′-tetrahydro-3′H,4H,7′H-spiro[isoxazole-5,6′-[2,7]methanopyrido[1,2-a][1,4]diazonine]-10′-carboxamide]: the figures for the EC50 with HIV-1 (IIIB), in the series with pLAI reporter virus (read-out: RLUC 50% HS EC50) and with pLAI reporter virus (read-out: RLUC CCM EC50) were 2.1 nM, 0.6 nM and 0.5 nM, respectively. This molecule also showed a CC50 at 5 days in “in vitro” of 19600 nM.
As to `C[C@H]1CC[C@]2(CC(F)=NO2)[C@H]2CN1C(=O)c1c(O)c(=O)c(C(=O)NCc3c(F)cc(F)cc3F)cn12` [Example 82, (3′S,5S,7′R)-3-fluoro-12′-hydroxy-3′-methyl-1′,11′-dioxo-N-(2,4,6-trifluorobenzyl)-1′,4′,5′,11′-tetrahydro-3′H,4H,7′H-spiro[isoxazole-5,6′-[2,7]methanopyrido[1,2-a][1,4]diazonine]-10′-carboxamide], the EC50 with HIV-1 (IIIB) worked out at 7.1 nM; with pLAI reporter virus (read-out: RLUC 50% HS EC50), 186 nM; in the series with pLAI reporter virus (read-out: RLUC CCM EC50), 1.3 nM. In the series “in vitro”, this molecule showed a half-maximal cytotoxic concentration (CC50) at 5 days of 5460 nM.
`[2H]C1C(OC)=NO[C@@]12CC[C@H](C)N1C[C@H]2n2cc(C(=O)NCc3c(F)cc(F)cc3F)c(=O)c(O)c2C1=O` (stereo partly drawn) [Example 83, (3′S,5S,7′R)-12′-hydroxy-3-methoxy-3′-methyl-1′,11′-dioxo-N-(2,4,6-trifluorobenzyl)-1′,4′,5′,11′-tetrahydro-3′H,4H,7′H-spiro[isoxazole-5,6′-[2,7]methanopyrido[1,2-a][1,4]diazonine]-4-d-10′-carboxamide]: the results for the EC50 with HIV-1 (IIIB), with pLAI reporter virus (read-out: RLUC 50% HS EC50) and in the series on pLAI reporter virus (read-out: RLUC CCM EC50) were 2.3 nM, 41.1 nM and 0.3 nM, respectively. Half-maximal cytotoxicity in “in vitro” (CC50 at 5 days) was put at 16200 nM.
The like results for `COC1=NO[C@@]2(CC[C@H](C)N3C[C@H]2n2cc(C(=O)NCc4c(F)cc(F)cc4F)c(=O)c(O)c2C3=O)[C@H]1O` [Example 84, (3′S,4R,5R,7′R)-4,12′-dihydroxy-3-methoxy-3′-methyl-1′,11′-dioxo-N-(2,4,6-trifluorobenzyl)-1′,4′,5′,11′-tetrahydro-3′H,4H,7′H-spiro[isoxazole-5,6′-[2,7]methanopyrido[1,2-a][1,4]diazonine]-10′-carboxamide] were, in that order, 1.6 nM, 22.3 nM, 0.3 nM and 25800 nM.
As for `COC1=NO[C@@]2(CC[C@H](C)N3C[C@H]2n2cc(C(=O)NCc4c(F)cc(F)cc4F)c(=O)c(O)c2C3=O)[C@H]1C` [Example 85, (3′S,4R,5S,7′R)-12′-hydroxy-3-methoxy-3′,4-dimethyl-1′,11′-dioxo-N-(2,4,6-trifluorobenzyl)-1′,4′,5′,11′-tetrahydro-3′H,4H,7′H-spiro[isoxazole-5,6′-[2,7]methanopyrido[1,2-a][1,4]diazonine]-10′-carboxamide], the EC50 in the series with HIV-1 (IIIB) came to 1 nM; in the series on pLAI reporter virus (read-out: RLUC 50% HS EC50), 28.7 nM; with pLAI reporter virus (read-out: RLUC CCM EC50), 0.2 nM. Moreover, in “in vitro”, the CC50 at 5 days is 29600 nM.
The matching figures for `COC1=NO[C@@]2(CC[C@H](C)N3C[C@H]2n2cc(C(=O)NCc4c(F)cc(F)cc4F)c(=O)c(O)c2C3=O)[C@@H]1F` [Example 86, (3′S,4S,5R,7′R)-4-fluoro-12′-hydroxy-3-methoxy-3′-methyl-1′,11′-dioxo-N-(2,4,6-trifluorobenzyl)-1′,4′,5′,11′-tetrahydro-3′H,4H,7′H-spiro[isoxazole-5,6′-[2,7]methanopyrido[1,2-a][1,4]diazonine]-10′-carboxamide]: 1.2 nM, 68.4 nM, 0.3 nM and 11900 nM.
The like results for `COC1=NO[C@@]2(CC[C@H](C)N3C[C@H]2n2cc(C(=O)NCc4c(F)cc(F)cc4F)c(=O)c(O)c2C3=O)[C@H]1F` [Example 87, (3′S,4R,5R,7′R)-4-fluoro-12′-hydroxy-3-methoxy-3′-methyl-1′,11′-dioxo-N-(2,4,6-trifluorobenzyl)-1′,4′,5′,11′-tetrahydro-3′H,4H,7′H-spiro[isoxazole-5,6′-[2,7]methanopyrido[1,2-a][1,4]diazonine]-10′-carboxamide] were, in that order, 1.2 nM, 31.8 nM, 0.2 nM and 10500 nM.
With `C[C@H]1CC[C@@]2(ON=C(CF)[C@@H]2O)[C@H]2CN1C(=O)c1c(O)c(=O)c(C(=O)NCc3c(F)cc(F)cc3F)cn12` [Example 88, (3′S,4S,5R,7′R)-3-(fluoromethyl)-4,12′-dihydroxy-3′-methyl-1′,11′-dioxo-N-(2,4,6-trifluorobenzyl)-1′,4′,5′,11′-tetrahydro-3′H,4H,7′H-spiro[isoxazole-5,6′-[2,7]methanopyrido[1,2-a][1,4]diazonine]-10′-carboxamide], the figures for the EC50 with HIV-1 (IIIB), in the series with pLAI reporter virus (read-out: RLUC 50% HS EC50) and with pLAI reporter virus (read-out: RLUC CCM EC50) were 2.6 nM, 280 nM and 0.3 nM, respectively. Also, the CC50 at 5 days in the series “in vitro” was ≥ 50000 nM.
Turning to `C[C@H]1CC[C@@]2(ON=C(CF)[C@@H]2O)[C@H]2CN1C(=O)c1c(O)c(=O)c(C(=O)NCc3ccc(F)cc3F)cn12` [Example 89, (3′S,4S,5R,7′R)—N-(2,4-difluorobenzyl)-3-(fluoromethyl)-4,12′-dihydroxy-3′-methyl-1′,11′-dioxo-1′,4′,5′,11′-tetrahydro-3′H,4H,7′H-spiro[isoxazole-5,6′-[2,7]methanopyrido[1,2-a][1,4]diazonine]-10′-carboxamide], the figures for the EC50 in the series with HIV-1 (IIIB), in the series with pLAI reporter virus (read-out: RLUC 50% HS EC50) and in the series with pLAI reporter virus (read-out: RLUC CCM EC50) were 1.3 nM, 63.8 nM and 0.4 nM, respectively. Besides, in “in vitro”, the CC50 at 5 days is ≥ 50000 nM.
The like results for `CC1=NO[C@@]2(CC[C@H](C)N3C[C@H]2n2cc(C(=O)NCc4ccc(F)cc4F)c(=O)c(O)c2C3=O)O1` [Example 91, (3′S,5R,7′R)—N-(2,4-difluorobenzyl)-12′-hydroxy-3,3′-dimethyl-1′,11′-dioxo-1′,4′,5′,11′-tetrahydro-3′H,7′H-spiro[[1,4,2]dioxazole-5,6′-[2,7]methanopyrido[1,2-a][1,4]diazonine]-10′-carboxamide] were, in that order, 1.4 nM, 158 nM, 0.2 nM and 20000 nM.

Usually EC50 stands for the midpoint of the concentration-response curve. In general, CC50 refers to the concentration giving 50% cytotoxicity.
